This note sets out measurements from patent publication US20230091047A1 (priority 2019, published 2023).

Read-outs that look alike come from different tables or passages of the source.

The subject of data set [1] is HBV (HepG2.117 cell line, inducibly HBV producing). Kind of data set: Anti-HBV activity: intracellular HBV DNA by real-time PCR in HepG2.117 cells after 3 days of treatment. It counts as cell-based, hepatitis B virus. The procedure, abridged: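 Inducible HBV-producing HepG2.117 line (Tet-off); 3-day exposure to serially diluted compound after induction; real-time PCR of intracellular viral DNA.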

The subject of data set [2] is HepG2 cells. The experiment in a line: in vitro. It counts as cell-based. The procedure, abridged: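 Luminescent ATP quantitation served as the viability endpoint following a 3- or 4-day incubation with test compounds.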
[3] abbreviates: HepG2.117 cells, intracellular HBV DNA by real-time PCR, 3 days of treatment, mean value; read-out: EC50 (μM, mean value).
Where [4] appears, read: HepG2 or HepG2.117 cells, ATPlite, 3-days incubation (not marked with *), mean value, read-out: CC50 (μM, mean value).
Setting [5] is: HepG2.117 cells, 3 days of treatment, intracellular HBV DNA by real-time PCR; mean value; read-out: EC50 (μM, mean value).
Setting [6] is: 3-days incubation (unmarked values), HepG2 or HepG2.117 cells, ATPlite, mean value, read-out: CC50 (μM, mean value).

For `CNC(=O)c1ccc(-n2c(NC(C)C)nc3c(c2=O)C[C@@H](C)N(C(=O)c2ccc(Cl)c(C(F)F)c2)C3)c(Cl)c1` (single isomer, unassigned) [Compound C685b], the half-maximal effective concentration (EC50) in data set [1] (setting [3]) came out at 0.03 µM. In addition, in data set [2] (setting [4]), the 50% cytotoxic concentration (CC50) was over 50 µM.

For the compound `CNC(=O)c1ccc(-n2c(N[C@@H](C)C3CC3)nc3c(c2=O)C[C@@H](C)N(C(=O)c2ccc(Cl)c(C(F)(F)F)c2)C3)c(Cl)c1` (single isomer, unassigned) [Compound C676b], in data set [1] (setting [3]), the 50% effective concentration (EC50) was 0.02 µM. In data set [2] (setting [4]), the cytotoxic concentration (CC50) came to 28.7 µM.

As to `CNC(=O)[C@H]1CC[C@@H](n2c(N[C@H](C)c3ccc(OC(F)(F)F)cc3)nc3c(c2=O)C[C@@H](C)N(C(=O)c2ccc(Cl)c(Cl)c2)C3)CC1` [Compound C636, (1R,4s)-4-((R)-7-(3,4-dichlorobenzoyl)-6-methyl-4-oxo-2-(((S)-1-(4-(trifluoromethoxy)phenyl)ethyl)amino)-5,6,7,8-tetrahydropyrido[3,4-d]pyrimidin-3(4H)-yl)-N-methylcyclohexane-1-carboxamide], the half-maximal effective concentration (EC50) in data set [1] (setting [3]) came out at 0.23 µM. This compound returned a CC50 in data set [2] of over 35 µM.

In the case of `COc1cc(C(=O)NC2CC2)ccc1-n1c(NC(C)C)nc2c(c1=O)C[C@@H](C)N(C(=O)c1ccc(Cl)c(C(F)(F)F)c1)C2` (single isomer, unassigned) [Compound C678b], in data set [1] (setting [3]), the EC50 came out at 0.04 µM. For the same compound, the CC50 in data set [2] (setting [4]) came out at 44.1 µM.

Turning to `CNC(=O)c1ccc(-n2c(NC(C)C)nc3c(c2=O)C[C@@H](C)N(C(=O)c2ccc(Cl)c(Cl)c2)C3)c(OC)c1` (single isomer, unassigned) [Compound C314b], the concentration for a half-maximal effect (EC50) in data set [1] (setting [5]) amounted to 0.22 µM. In data set [2] (setting [6]), the cytotoxic concentration (CC50) was over 50 µM.

Take `COc1ccc(CNc2nc3c(c(=O)n2-c2ccccc2OC)C[C@H](C)N(C(=O)c2ccc(Cl)c(Cl)c2)C3)cc1` (single isomer, unassigned) [Compound C36Bb]: the EC50 in data set [1] (setting [5]) was over 50 µM. Besides, in data set [2] (setting [6]), the cytotoxic concentration (CC50) was over 50 µM.

In the case of `Cc1cc(-n2cccn2)ccc1-n1c(NC(C)C)nc2c(c1=O)C[C@@H](C)N(C(=O)c1ccc(Cl)c(Cl)c1)C2` (atropisomer, axis not shown) [Compound C308a, (6R)-7-(3,4-dichlorobenzoyl)-6-methyl-3-[2-methyl-4-(1H-pyrazol-1-yl)phenyl]-2-[(propan-2-yl)amino]-5,6,7,8-tetrahydropyrido[3,4-d]pyrimidin-4(3H)-one], the EC50 in data set [1] (setting [5]) was determined as 0.11 µM. The CC50 in data set [2] (setting [6]) is over 50 µM.

Regarding `COc1ccccc1-n1c(N[C@H](C)C(F)(F)F)nc2c(c1=O)CCN(C(=O)c1ccc(Cl)c(Cl)c1)C2` (single isomer, unassigned) [Compound C101b], the EC50 in data set [1] (setting [5]) is 9.59 µM. Further, the CC50 in data set [2] (setting [6]) turned out to be 33.2 µM.

Consider `Cc1cc(-n2cccn2)ccc1-n1c(NC(C)C)nc2c(c1=O)C[C@@H](C)N(C(=O)c1ccc(Cl)c(Cl)c1)C2` (single isomer, unassigned) [Compound C308b], for which the EC50 in data set [1] (setting [5]) turned out to be 0.16 µM. In addition, the CC50 in data set [2] (setting [6]) is over 50 µM.

For the compound `CNC(=O)c1ccc(-n2c(OC(C)C)nc3c(c2=O)C[C@@H](C)N(C(=O)c2ccc(Cl)c(Cl)c2)C3)c(Cl)c1` [Compound C403b], the EC50 in data set [1] (setting [3]) amounted to 0.08 µM. Further, the half-maximal cytotoxic concentration (CC50) in data set [2] (setting [4]) amounted to 31.1 µM.

Regarding `CNC(=O)c1ccc(-n2c(NC(C)C)nc3c(c2=O)C[C@@H](C)N(C(=O)c2ccc(Cl)c(C(F)(F)F)c2)C3)c(Cl)c1` (single isomer, unassigned) [Compound C639b], the EC50 in data set [1] (setting [3]) was 0.02 µM. In data set [2] (setting [4]), the CC50 was found to be 25.4 µM.

Regarding `CNC(=O)c1ccc(-n2c(N[C@H](C)c3ccc(OC(F)F)cc3)nc3c(c2=O)C[C@@H](C)N(C(=O)c2ccc(Cl)c(Cl)c2)C3)cc1` [Compound C411b], the EC50 in data set [1] (setting [3]) was determined as 0.07 µM. Also, in data set [2] (setting [4]), the cytotoxic concentration (CC50) is 42.1 µM.

Regarding `CNC(=O)c1cnc(-n2c(N[C@@H](C)c3ccc(OC(F)(F)F)cc3)nc3c(c2=O)C[C@@H](C)N(C(=O)c2ccc(Cl)c(Cl)c2)C3)cn1` [Compound C617], the EC50 in data set [1] (setting [3]) is 0.08 µM. Moreover, in data set [2] (setting [4]), the CC50 was over 50 µM.

For the compound `CNC(=O)c1ccc(-n2c(NC(C)C)nc3c(c2=O)C[C@@H](C)N(C(=O)c2ccc(Cl)c(C(F)(F)F)c2)C3)c(OC)c1` (single isomer, unassigned) [Compound C643a], in data set [1] (setting [3]), the concentration for a half-maximal effect (EC50) was found to be 0.04 µM. Further, the CC50 in data set [2] (setting [4]) is over 50 µM.

On to `CC(C)Nc1nc2c(c(=O)n1-c1ccc(-c3ncc[nH]3)cc1Cl)C[C@@H](C)N(C(=O)c1ccc(Cl)c(Cl)c1)C2` (single isomer, unassigned) [Compound C393a], for which, in data set [1] (setting [3]), the concentration giving a half-maximal response (EC50) stood at 0.12 µM. In data set [2] (setting [4]), the cytotoxic concentration (CC50) amounted to 14.1 µM.

Turning to `CC(C)Nc1nc2c(c(=O)n1-c1ccc(-c3nccn3C)cc1Cl)C[C@@H](C)N(C(=O)c1ccc(Cl)c(Cl)c1)C2` (single isomer, unassigned) [Compound C392b], in data set [1] (setting [3]), the concentration giving a half-maximal response (EC50) came out at 0.12 µM. Moreover, the half-maximal cytotoxic concentration (CC50) in data set [2] (setting [4]) turned out to be 26.7 µM.

As to `CC(C)Nc1nc2c(c(=O)n1-c1ccc(C(=O)NC3CC3)cc1Cl)C[C@@H](C)N(C(=O)c1ccc(Cl)c(C(F)(F)F)c1)C2` (single isomer, unassigned) [Compound C673b], the EC50 in data set [1] (setting [3]) worked out at 0.03 µM. For the same compound, the cytotoxic concentration (CC50) in data set [2] (setting [4]) is over 50 µM.

`CNc1noc2cc(-n3c(NC(C)C)nc4c(c3=O)C[C@@H](C)N(C(=O)c3ccc(Cl)c(Cl)c3)C4)c(C)cc12` (single isomer, unassigned) [Compound C447a]: the EC50 in data set [1] (setting [3]) worked out at 0.23 µM. Moreover, the CC50 in data set [2] (setting [4]) was over 50 µM.

Consider `CNC(=O)c1ccc(-n2c(NCc3nc(-c4ccccc4)n[nH]3)nc3c(c2=O)C[C@@H](C)N(C(=O)c2ccc(Cl)c(Cl)c2)C3)cc1` [Compound C538], for which the EC50 in data set [1] (setting [3]) stood at 20.6 µM. In addition, the CC50 in data set [2] (setting [4]) is over 50 µM.

On to `Cc1cc(-c2ncc[nH]2)ccc1-n1c(NC(C)C)nc2c(c1=O)C[C@@H](C)N(C(=O)c1ccc(Cl)c(Cl)c1)C2` (single isomer, unassigned) [Compound C399a], for which the EC50 in data set [1] (setting [3]) amounted to 0.14 µM. Moreover, the cytotoxic concentration (CC50) in data set [2] (setting [4]) was 27.7 µM.

Regarding `CNC(=O)c1ccc(-n2c(NC(C)C)nc3c(c2=O)C[C@@H](C)N(C(=O)c2ccc(Cl)c(C(F)(F)F)c2)C3)c(C(F)F)c1` (single isomer, unassigned) [Compound C669b], the 50% effective concentration (EC50) in data set [1] (setting [3]) stood at 0.04 µM. In addition, the 50% cytotoxic concentration (CC50) in data set [2] (setting [4]) is over 50 µM.

Regarding `CNC(=O)c1ccc(-n2c(NC(C)C)nc3c(c2=O)C[C@@H](C)N(C(=O)c2ccc(Cl)c(Cl)c2)C3)c(C(C)C)c1` (single isomer, unassigned) [Compound C420a], the EC50 in data set [1] (setting [3]) worked out at 0.72 µM. Also, in data set [2] (setting [4]), the CC50 was found to be 21.7 µM.

Consider `CNC(=O)c1ccc(-n2c(N[C@@H](C)c3ccccc3)nc3c(c2=O)C[C@@H](C)N(C(=O)c2ccc(Cl)c(Cl)c2)C3)c(Cl)c1` (single isomer, unassigned) [Compound C386b], for which the EC50 in data set [1] (setting [3]) turned out to be 0.1 µM. The cytotoxic concentration (CC50) in data set [2] (setting [4]) was over 50 µM.

Take `CCc1cc(C(=O)NC)ccc1-n1c(NC(C)C)nc2c(c1=O)C[C@@H](C)N(C(=O)c1ccc(Cl)c(Cl)c1)C2` (single isomer, unassigned) [Compound C383b]: in data set [1] (setting [3]), the 50% effective concentration (EC50) turned out to be 0.17 µM. The cytotoxic concentration (CC50) in data set [2] (setting [4]) is over 45 µM.

On to `COc1ccccc1-n1c(NCc2ccc3c(c2)OCO3)nc2c(c1=O)CCN(C(=O)c1ccc(Cl)c(Cl)c1)C2` (single isomer, unassigned) [Compound C26a, 2-{[(2H-1,3-benzodioxol-5-yl)methyl]amino}-7-(3,4-dichlorobenzoyl)-3-(2-methoxyphenyl)-5,6,7,8-tetrahydropyrido[3,4-d]pyrimidin-4(3H)-one], for which the half-maximal effective concentration (EC50) in data set [1] (setting [5]) worked out at 1.42 µM. Besides, the half-maximal cytotoxic concentration (CC50) in data set [2] (setting [6]) was over 50 µM.
